Consider six compounds from patent US6255517A, “Thymol derivatives having anti-tumor activity, and anti-cancer agent comprising the same” (Zee; Ok Pyo, priority 1998, dated 2001).

Common to all, as to format: cell-based
One assay relates to A549. The assay is described as follows: SRB cytotoxicity (anti-tumor activity) in vitro, A549. The following applies: Homo sapiens; A549 non small cell lung carcinoma; SRB, 48 hours; read-out: ED50 (the source's name). The text has this:
(§1) Anti-Tumor (Cyto-Toxicity) Effect in vitro of the Compound According to the Present Invention
(§2) The method for detecting cyto-toxicity employed in the present experiment is Sulforhodamin B Bioassay (SRB) method, which was developed by National Cancer Institute (NCI) in the United States in 1989, for the purpose of measuring anti-tumor activity in vitro.
(§3) The tumor cells used in the experiments via SRB method are listed below:
A549: non small cell lungcarcinoma
(§4) The tumor cells listed above are all human tumor cell-lines, which were distributed from NCI in the United States and subcultured in Korea Chemical Institute. As a culture medium, RPMI 1640 culture medium supplemented with 5% FBS (fetal bovine serum) was used. Cultivation was performed in an 5% CO2 incubator with constant temperature (37° C.) and humidity. The subculture was carried out every three or four days, and a solution of 0.25% tyrosine and 3 mM trans-1,2-diaminocyclohexane-n,n,n,n-tetracetic acid (CDTA) dissolved in PBS (phosphate buffered saline) was used in order to release cells from the surface of the container.
(§5) The test compound synthesized according to the present invention was diluted to have a concentration of 30.0 μg/ml, 10.0 μg/ml, 3.0 μg/ml, 1.0 μg/ml, 0.3 μg/ml and 0.1 μg/ml, respectively, and the cyto-toxicity (anti-tumor activity) of the compound was measured. The maximum concentration of the sample was not more than 30.0 μg/ml. In order to prepare the samples for detection, DMSO (dimethylsulfoxide) was used, if necessary. The concentration of DMSO added was not more than 0.5%. Before added to the tumor cells, the sample solution, which was diluted via several steps, is filtered through a Millipore filter. In a sterile condition, the sample for detecting cyto-toxicity was prepared by means of SRB method using human tumor cell-lines such as A549, SK-OV-3, SK-MEL-2, XF498 and HCT15.
(§6) The subcultured tumor cells were released from the surface of instrument by using tyrosine-CDTA solution, and then charged on a 96-well flat bottom microplate to make the cell number 5×10^3 (A549, HCT15), 1×10^4 (SK-MEL-2, XF498) and 2×10^4 (SK-OV-3) for each cell. The tumor cells are attached on the bottom by cultivating in a CO2 incubator. After removing the culture medium by using an aspirator, the medium is eliminated by using log dose of six concentrations. To each well, 100 μl of 10% TCA (trichloroacetic acid) is added, and the plate was left for 1 hour at 4° C. to fix the cells on the bottom surface of the plate.
(§7) Then, the plate was washed with distilled water 5-6 times to completely remove the residual TCA solution, and dried up at room temperature. To each well of the completely dried plate, 100 μl of dye solution, in which 0.4% SRB solution was dissolved, was added to dye the cells for 30 minutes, and the cells were washed with 1% acetic acid to remove excess SRB which was not combined with the cells. The dyed cell plates were dried at room temperature, and 100 μl of 10 mM trisma base solution was added to each well. The solution was mixed by a titer plate shaker for 10 minutes to elute the dye solution. Then, the absorbance at 520 nm was measured by using a microplate reader.
(§8) In order to calculate the cyto-toxicity (anti-tumor activity) of the samples on tumor cells, the number of tumor cells at the point of adding the sample (Tz, zero time), the number of cells when only an excess amount of culture medium was added instead of the sample and cultured for 48 hours (C, control), and the number of cells when each concentration of the sample was added and cultured for 48 hours (T, test) were measured respectively. The cyto-toxicity was determined according to the following formulas:
(§9) When Tz>T: [(T-Tz)/(C-Tz)]×100
(§10) When Tz<T: [(T-Tz)/Tz]×100
(§11) From the calculated values thus obtained, ED50 (50% effective dose) [the concentration when the sample inhibits 50% of the growth of the tumor cells] was determined by the use of data regression tool of LOTUS program. […]

For another assay, the system named is SK-OV-3. Put plainly: SRB cytotoxicity (anti-tumor activity) in vitro, SK-OV-3. The following applies: Homo sapiens, SK-OV-3 ovary adenocarcinoma, 48 hours, read-out: ED50 (the source's name).
Text: as §1, §2, §3
SK-OV-3: adenocarcinoma, ovary malignant ascites
as §4, §5, §6, §7, §8, §9, §10, §11

Another assay has as its system SK-MEL-2. Put plainly: SRB cytotoxicity (anti-tumor activity) in vitro, SK-MEL-2. To be noted: Homo sapiens, SK-MEL-2 malignant melanoma, 48 hours, read-out: ED50 (the source's name).
Text: as §1, §2, §3
SK-MEL-2: malignant melanoma, metastasis to skin of thigh
as §4, §5, §6, §7, §8, §9, §10, §11

The test system of a further assay is XF498. The assay is described as follows: SRB cytotoxicity (anti-tumor activity) in vitro, XF498. The following applies: Homo sapiens, XF498 central nerve system tumor, 48 hours, read-out: ED50 (the source's name).
Text: as §1, §2, §3
XF498: central nerve system tumor
as §4, §5, §6, §7, §8, §9, §10, §11

A further assay deals with HCT15. Put plainly: SRB cytotoxicity (anti-tumor activity) in vitro, HCT15. To be noted: Homo sapiens, HCT-15, HCT15 colon adenocarcinoma, 48 hours, read-out: ED50 (the source's name).
Text: as §1, §2, §3
HCT15: colon adenocarcinoma
as §4, §5, §6, §7, §8, §9, §10, §11

Molecules are shown by their SMILES. pIC50: −log10 of the molar value. Some results are limits rather than exact numbers.

Consider `CC(=O)Oc1ccc(C2(COC(=O)Cc3ccc(F)cc3)CO2)c(OC(C)=O)c1` (stereo not drawn) [Compound 27-3, 2-(2',4'-Diacetoxyphenyl)-3-(4-fluorophenylacetoxy)-1,2-epoxypropane], for which the pIC50 is 4.44 in the assay on A549; 5.41 in the assay on SK-OV-3; 5.03 in the assay on SK-MEL-2; 4.96 with XF498; 5.35 in the assay on HCT15.
For the compound `CC(=O)Oc1ccccc1C1(COC(=O)c2ccc(C)cc2)CO1` (stereo not drawn) [Compound 33-6], the pIC50 is 4.38 in the assay on A549; 4.97 in the assay with SK-OV-3; 5.16 in the assay with SK-MEL-2; 5.06 in the assay with XF498; 5.03 in the assay with HCT15.
On to `COc1ccc(C(=O)OCC(O)(CO)c2ccc(C)cc2OC(C)=O)cc1` (stereo not drawn) [Compound 15-7, 10-(4-Methoxybenzoxy)-8,9-dihydroxythymol acetate], for which the pIC50 is below 4.00 with A549; 4.42 with SK-OV-3; 4.83 with SK-MEL-2; 4.20 with XF498; 4.82 in the assay with HCT15.
`CC(=O)Oc1cc(C)ccc1C(O)(CO)COC(=O)c1ccc([N+](=O)[O-])cc1` (stereo not drawn) [Compound 15-6, 10-(4-Nitrobenzoxy)-8,9-dihydroxythymol acetate]: the pIC50 with A549 was below 4.00; in the assay with SK-OV-3, 4.71; in the assay on SK-MEL-2, 4.96; with XF498, 4.39; with HCT15, 4.98.
For the compound `CC(=O)Oc1ccc(C2(COC(=O)Cc3ccc([N+](=O)[O-])cc3)CO2)c(OC(C)=O)c1` (stereo not drawn) [Compound 27-2, 2-(2',4'-Diacetoxyphenyl)-3-(4-nitrophenylacetoxy)-1,2-epoxypropane], the pIC50 in the assay with A549 is 4.63; in the assay on SK-OV-3 it was 5.57; in the assay with SK-MEL-2, 5.42; in the assay with XF498, 5.39; in the assay with HCT15, 5.62.
Turning to `CC(=O)Oc1ccccc1C1(COC(=O)Cc2ccc([N+](=O)[O-])cc2)CO1` (stereo not drawn) [Compound 33-2], the pIC50 was 4.35 with A549; 4.61 in the assay with SK-OV-3; 4.85 in the assay with SK-MEL-2; 4.79 with XF498; 4.76 with HCT15.
